Measured values reported in patent publication US8618137B2 (priority 2008, dated 2013).
Read-outs that look alike come from different tables or passages of the source. Marks after values point to notes of the source that are not given here.

Legend:
Format in all cases: in vivo
[1] = test system: Plasmopara viticola (the causal agent of grape downy mildew); test: Test A: grape downy mildew, grape seedlings inoculated then sprayed with test suspension, visual disease rating; details: 100 = 100% disease control, 0 = no control relative to controls
From the text: General protocol for preparing test suspensions for Tests A-B2: The test compounds were first dissolved in acetone in an amount equal to 3% of the final volume and then suspended at the desired concentration (in ppm) in acetone and purified water (50/50 mix by volume) containing 250 ppm of the surfactant Trem® 014 (polyhydric alcohol esters). The resulting test suspensions were then used in Tests A-B2. Spraying a 200 ppm test suspension to the point of run-off on the test plants was the equivalent of a rate of 800 g/ha.
Grape seedlings were inoculated with a spore suspension of Plasmopara viticola (the causal agent of grape downy mildew) and incubated in a saturated atmosphere at 20° C. for 24 h. After a short drying period, the grape seedlings were sprayed with the test suspension to the point of run-off, then moved to a growth chamber at 20° C. for 5 days, and then back into a saturated atmosphere at 20° C. for 24 h. Upon removal, visual disease ratings were made.
Results for Tests A-B2 are given in Table A. In the Table, a rating of 100 indicates 100% disease control and a rating of 0 indicates no disease control (relative to the controls). All results are for 10 ppm except where followed by an “*” which indicates 40 ppm and “**” which indicates 200 ppm.

[2] = test system: Phytophthora infestans (the causal agent of tomato late blight); details: sprayed the day before inoculation, 100 = 100% disease control, 0 = no control
[3] = test system: Phytophthora infestans (the causal agent of tomato late blight); details: sprayed 17 h after inoculation, 100 = 100% disease control, 0 = no control

Structure (SMILES) | Test A rating (disease control) ([1]; test suspension 40 ppm (*)) | Test B1 rating (disease control) ([2]; test suspension 40 ppm (*)) | Test B2 rating (disease control) ([3]; test suspension 40 ppm (*)) | Test A rating (disease control) ([1]; test suspension 10 ppm) | Test B1 rating (disease control) ([2]; test suspension 10 ppm) | Test B2 rating (disease control) ([3]; test suspension 10 ppm)
CC(C)=NOCC(=O)N1CCC(c2nc(C(=O)N(C)[C@H](C)c3ccccc3)cs2)CC1 [compound 15] | 99* % | 39* % | 91* % |  |  | 
O=C(CON=CC(F)(F)F)N1CCC(c2nc(C3=NOC4(CCc5ccccc54)C3)cs2)CC1 (stereo not drawn) [compound 29] |  |  |  | 100% | 100% | 99%
CC(C)=NOCC(=O)N1CCC(c2nc(C3=NOC(c4ccccc4C#N)C3)cs2)CC1 (stereo not drawn) [compound 41] |  |  |  | 100% | 100% | 99%
CC(=NOCC(=O)N1CCC(c2nc(C3=NOC(c4ccccc4C#N)C3)cs2)CC1)C(F)(F)F (stereo not drawn) [compound 42] |  |  |  | 100% | 100% | 99%
CC(=NOCC(=O)N1CCC(c2nc(C3=NOC(n4c(=O)oc5ccccc54)C3)cs2)CC1)C(F)(F)F (stereo not drawn) [compound 43] |  |  |  | 100% | 100% | 99%
CC(=NOCC(=O)N1CCC(c2nc(C3=NOC(N4C(=O)c5ccccc5C4=O)C3)cs2)CC1)C(F)(F)F (stereo not drawn) [compound 44] |  |  |  | 100% | 100% | 99%
CC(C)=NOCC(=O)N1CCC(c2nc(C3=NOC(N4C(=O)c5ccccc5C4=O)C3)cs2)CC1 (stereo not drawn) [compound 45] |  |  |  | 96% | 95% | 99%
CC1=NN(CC(=O)N2CCC(c3nc(C4=NOC(c5c(F)cccc5F)C4)cs3)CC2)C(C)(C)C1 (stereo not drawn) [compound 46] | 9* % | 90* % | 81* % |  |  | 
CN1C(=O)c2ccccc2C12CC(c1csc(C3CCN(C(=O)CON=CC(F)(F)F)CC3)n1)=NO2 (stereo not drawn) [compound 47] |  |  |  | 100% | 100% | 99%
Cn1c(=O)n(C2CC(c3csc(C4CCN(C(=O)CON=CC(F)(F)F)CC4)n3)=NO2)c2ccccc21 (stereo not drawn) [compound 48] |  |  |  | 100% | 100% | 99%
CC(=NOCC(=O)N1CCC(c2nc(C3=NOC(n4c(=O)n(C)c5ccccc54)C3)cs2)CC1)C(F)(F)F (stereo not drawn) [compound 49] |  |  |  | 100% | 100% | 99%
CC(=NOCC(=O)N1CCC(c2nc(C3=NOC4(C3)c3ccccc3C(=O)N4C)cs2)CC1)C(F)(F)F (stereo not drawn) [compound 50] |  |  |  | 100% | 100% | 99%
N#CC(C#N)=NOCC(=O)N1CCC(c2nc(C3=NOC(c4c(F)cccc4F)C3)cs2)CC1 (stereo not drawn) [compound 51] |  |  |  | 99% | 100% | 99%
